# Assays:
# Human A549 cells = details: for cytoprotection against H2O2 (in words): same concentration as ADP-ribose (25 or 50 μg/ml)
# [1] = molecular target: poly (ADP-ribose) polymerase (PARP) (Homo sapiens, UniProt P09874); experiment: PARP assay (in vitro PARP inhibition); assay type: biochemical; details: same concentration as ADP-ribose (4 to 10 mM); FIG. 2
# Experimental: 1. […] 2. Cover the plate with an adhesive plate sealer and incubate for 2 hours at room temperature (or overnight at 2-8° C.). 1. […] After the last wash, remove any remaining PBS by decanting. Invert the plate and blot it against clean paper toweling. Note, at this time plates can be air dried and stored covered at room temperature for later use. 2. Block the wells by adding 50 μL of Strep Diluent to each well. 3. Cover the plate with an adhesive plate sealer and incubate for 1 hour at room temperature (or overnight at 2-8° C.). […] PARP will autoribosylate in the presence of NAD. 1. […] After the last wash, remove any remaining PBS by decanting. Invert the plate and blot it against clean paper toweling. 2. […] 3. Add inhibitor of interest. The final reaction volume is 50 μL/well. […] Enzyme is added last. • For 24 wells: Make for 20=2×0.5 units=10 units • 20 wells×5 μL=100 μL 10 μL enzyme+90 μl of 1× PARP buffer […] 5. Incubate the plate for 30 minutes at room temperature. The extent of ribosylation is time dependant; therefore this step can be extended if desired. 1. […] After the last wash, remove any remaining PBS by decanting. Invert the plate and blot it against clean paper toweling. 2. Dilute Strep-HRP • Dilute 1:500 • For 20 wells=1,100 μL Strep diluent+2.2 μL Strep-HRP • Add 50 μL of diluted Strep-HRP to each well. 3. Incubate for 30 minutes at 37° C. […] After the last wash, remove any remaining PBS by decanting. Invert the plate and blot it against clean paper toweling. 5. Add 50 μL TACS-Sapphire dye to each well. Incubate for 10 minutes in the dark.
# Sequence of poly (ADP-ribose) polymerase (PARP) (P09874 whole entry): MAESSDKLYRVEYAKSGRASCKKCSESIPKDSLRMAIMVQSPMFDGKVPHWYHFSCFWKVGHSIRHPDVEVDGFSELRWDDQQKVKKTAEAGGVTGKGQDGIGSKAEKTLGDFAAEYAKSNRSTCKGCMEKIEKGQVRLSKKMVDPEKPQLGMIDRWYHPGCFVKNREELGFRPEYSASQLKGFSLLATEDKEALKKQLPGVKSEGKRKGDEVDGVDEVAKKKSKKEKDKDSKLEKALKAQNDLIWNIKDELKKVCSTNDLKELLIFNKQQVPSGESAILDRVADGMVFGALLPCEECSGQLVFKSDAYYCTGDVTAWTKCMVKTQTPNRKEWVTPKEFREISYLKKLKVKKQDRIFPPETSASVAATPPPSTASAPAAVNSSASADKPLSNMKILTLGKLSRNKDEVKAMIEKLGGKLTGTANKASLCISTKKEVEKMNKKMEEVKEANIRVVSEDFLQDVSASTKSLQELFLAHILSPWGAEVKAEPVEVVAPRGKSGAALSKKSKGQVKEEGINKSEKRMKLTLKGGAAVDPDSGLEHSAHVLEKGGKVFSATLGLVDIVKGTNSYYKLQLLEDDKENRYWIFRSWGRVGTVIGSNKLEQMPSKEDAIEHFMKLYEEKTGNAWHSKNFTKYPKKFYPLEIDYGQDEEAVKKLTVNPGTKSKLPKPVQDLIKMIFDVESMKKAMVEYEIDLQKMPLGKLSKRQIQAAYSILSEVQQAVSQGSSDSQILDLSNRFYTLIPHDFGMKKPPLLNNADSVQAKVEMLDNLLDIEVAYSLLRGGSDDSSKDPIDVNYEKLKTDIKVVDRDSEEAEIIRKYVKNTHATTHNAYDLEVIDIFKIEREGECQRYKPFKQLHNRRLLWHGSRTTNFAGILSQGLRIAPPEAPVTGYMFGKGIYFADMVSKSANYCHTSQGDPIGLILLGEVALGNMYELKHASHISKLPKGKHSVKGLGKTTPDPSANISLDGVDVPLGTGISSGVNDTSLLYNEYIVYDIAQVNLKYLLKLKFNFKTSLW
Compound,protection from H2O2 cytotoxicity (Human A549 cells) [%],cytoprotection against H2O2 (in words) (Human A549 cells),inhibition of PARP activity (in words) [1],protection of cells from cytotoxicity mediated cell death (in words) (Human A549 cells)
Nc1ncnc2c1ncn2[C@@H]1O[C@H](COP(=O)(O)OP(=O)(O)O[C@H]2O[C@H](CO)[C@@H](O)[C@H](O)[C@H]2O)[C@@H](O)[C@H]1O [ADP-glucose],~25,cytoprotection was specific to ADP-ribose,unable to inhibit PARP activity,–
Nc1ncnc2c1ncn2[C@@H]1O[C@H](COP(=O)(O)O)[C@@H](O)[C@H]1O [AMP],–,cytoprotection was specific to ADP-ribose,unable to inhibit PARP activity,–
Nc1ncnc2c1ncn2[C@@H]1O[C@H](CO)[C@@H](O)[C@H]1O [adenosine],–,cytoprotection was specific to ADP-ribose,unable to inhibit PARP activity,–
N=c1c2ncn3c2ncn1[C@@H]1O[C@H](COP(=O)(O)OP(=O)(O)OC[C@H]2O[C@@H]3[C@H](O)[C@@H]2O)[C@@H](O)[C@H]1O [cADP-ribose],–,–,–,unable to protect cells from cytotoxicity mediated cell death

# — patent US20050276762A1, “Topical compositions containing 5'-adenosine-diphosphate ribose” (priority 2004, published 2005)
